# Measurements taken from patent US5750531A, “Pyrimidine derivatives and processes for the preparation thereof” (Yuhan Corporation, priority 1994, dated 1998).
# Where a name gives a salt, the structure may show the parent alone.
# Tests used:
# [1] = target: proton pump(H^+ /K^+ ATPase); assay: Inhibition of proton pump(H^+ /K^+ ATPase) activity; type: biochemical; conditions: pH 6.0, 37° C., 30 minutes preincubation and 30 minutes reaction; read-out: IC50 Test compound
# Procedure: Test 1: Inhibition of proton pump(H^+ /K^+ ATPase) activity
# A proton pump enzyme source was prepared by the same method as in Experiment 1-1 of WO 94/14795. Further, the inhibitory effect of proton pump activity was measured by the same method as in Experiment 1-2 of WO 94/14795.
# Namely, the proton pump activity stimulated by Mg^++ was used as a negative comparative group, and the activity stimulated by Mg^++ and K^+ was used as a positive comparative group. The comparative compound was omeprazole.
# Test tubes were divided into 4 groups: Group 1 as negative comparative group(n=3), Group 2 as positive comparative group(n=3), Group 3(n=5×2) to be administered with the compound of the present invention and Group 4(n=5×2) to be administered with the comparative compound.
# The inhibitory effects of Groups 3 and 4 on proton pump activity were measured by employing the compound prepared in Example and omeperazole, respectively, each of which was dissolved in dimethylsulfoxide at 5 different concentrations.
# To each of Groups 1, 2, 3 and 4 were added 100 μl of magnesium chloride(40 mM) dissolved in 40 mM Tris-HCl buffer(pH 6.0) and 100μ of the enzyme source. Then, 50μ of potassium chloride(50 mM) and 50 μl of ammonium chloride(6 mM) dissolved in 40 mM Tris-HCl buffer(pH 6.0) were added to all groups except for Group 1.
# 10 μl of dimethylsulfoxide was added to each of Groups 1 and 2; and to Group 3 was added 10 μl of the solution in which the compound prepared in Example was dissolved in dimethylsulfoxide at 5 different concentrations(n=5×2). To Group 4, 10 μl of the solution prepared by dissolving omeprazole in dimethylsulfoxide at 5 different concentrations(37.6, 21.4, 12.2, 7.0 and 4.0 μM) was added(n=5×2). 40 mM Tris-HCl buffer(pH=6.0) was added thereto so as to make the total volume 400 μl.
# Thereafter, the test tubes of each Group were placed at 37° C. for 30 minutes for the preincubation. 100 μl of ATP solution (6.6 mM) was added until the reaction volume became 500 μl. After the reaction was carried out at 37° C. for 30 minutes, 25% cold trichloroacetic acid was added to terminate the enzyme reaction. The released inorganic phosphate was measured by an automatic analyzer(Express 550, Corning).
# The difference between Group 1 and Group 2 represents the proton pump activity activated by K^+ only. The inhibition percentages of Groups 3 and 4 were calculated from Litchfield-wilcoxon equation[see, e.g., J. pharmacol. Exp. Ther., 96, 99(1949)]. The concentrations of the test compounds which inhibit 50% of the proton pump activity are represented as IC50 in Table 1.
# gastric secretion = assay: Inhibition of gastric secretion (pylorus ligation, Shay method); type: in vivo, Male Sprague-Dawley rats; conditions: 20 mg/kg intraduodenally, 5 hours; for Rel. Conc.: acid concentration relative to omeprazole; for Relative Acid Output: acid output relative to omeprazole; for Rel. Vol.: gastric juice volume relative to omeprazole
# Procedure: Inhibition of gastric secretion […] Under ether anesthesia, the abdomen was incised, and the pylorus was ligated. […] After closing the abdominal cavity, the rats were placed for 5 hours and then killed by cervical dislocation. The stomach was extracted to obtain gastric juice. The gastric juice was centrifuged at 1,000 g to remove precipitates. The amount and acidity of the gastric juice were measured. Relative volumes, relative acid concentrations and relative acid outputs of the test compounds were calculated from equations(I), (II) and (III) and the results are shown in Table 2. […] Group 3) (II) […] (III)
SMILES,IC50 [1],Rel. Conc. (gastric secretion),Relative Acid Output (gastric secretion),Rel. Vol. (gastric secretion)
"Cc1nc(Nc2ccc(F)cc2)nc(N2CCc3ccccc3C2C)c1C.Cl (stereo not shown) [Example 15, 5,6-dimethyl-2-(4-fluorophenylamino)-4-(1-methyl-1,2,3,4-tetrahydroisoquinolin-2-yl)pyrimidine hydrochloride]",1600 nM,1.06,0.99,0.8
"CCc1nc(N(C)c2ccccc2)nc(N2CCc3ccccc3C2C)c1C.Cl (stereo not shown) [Example 28, 5-methyl-6-ethyl-2-(N-methylphenylamino)-4-(1-methyl-1,2,3,4-tetrahydroisoquinolin-2-yl)pyrimidine hydrochloride]",> 15000 nM,0.44,0.78,0.71
"Cc1nc(N2CCc3ccccc3[C@H]2C)nc(Nc2ccc(F)cc2)c1C.Cl [Example 69, (R)-5,6-dimethyl-4-(4-fluorophenylamino)-2-(1-methyl-1,2,3,4-tetrahydroisoquinolin-2-yl)pyrimidine hydrochloride]",2900 nM,0.39,0.76,1.61
"Cc1cc(F)ccc1Nc1nc(N2CCc3ccccc3[C@@H]2C)nc(C)c1C.Cl [Example 67, (S)-5,6-dimethyl-4-(2-methyl-4-fluorophenylamino)-2-(1-methyl-1,2,3,4-tetrahydroisoquinolin-2-yl)pyrimidine hydrochloride]",1300 nM,0.31,0.62,1.36
"CCc1nc(Nc2ccc(F)cc2C)nc(N2CCc3ccccc3C2C)c1C.Cl (stereo not shown) [Example 26, 5-methyl-6-ethyl-2-(2-methyl-4-fluorophenylamino)-4-(1-methyl-1,2,3,4-tetrahydroisoquinolin-2-yl)pyrimidine hydrochloride]",800 nM,0.53,0.73,0.6
"Cc1nc(N2CCc3ccsc3C2C)nc(Nc2ccc(F)cc2)c1C.Cl (stereo not shown) [Example 78, 5,6-dimethyl-2-(7-methyl-4,5,6,7-tetrahydrothieno[2,3-c]pyridin-6-yl)-4-(4-fluorophenylamino)pyrimidine hydrochloride]",8500 nM,1.75,1.09,1.06
"Cc1cc(F)ccc1Nc1nc(C)c(C)c(N2CCc3ccccc3[C@H]2C)n1.Cl [Example 13, (R)-5,6-Dimethyl-2-(2-methyl-4-fluorophenylamino)-4-(1-methyl-1,2,3,4-tetrahydroisoquinolin-2-yl)pyrimidine hydrochloride]",500 nM,0.46,0.81,1.72
"Cc1cc(F)ccc1Nc1nc(N2CCc3ccccc3C2C)nc2c1CCC2 (stereo not shown) [Example 81, hydrochloride]",400 nM,0.47,0.68,0.56
"CCc1cc(N2CCc3ccccc3C2)nc(N(C)c2ccccc2)n1.Cl [Example 39, 6-ethyl-2-(N-methylphenylamino)-4-(1,2,3,4-tetrahydroisoquinolin-2-yl)pyrimidine hydrochloride]",> 15000 nM,0.18,0.56,0.58
"CCCc1cc(N2CCc3ccccc3C2C)nc(Nc2ccc(F)cc2C)n1.Cl (stereo not shown) [Example 9, 2-(2-methyl-4-fluorophenylamino)-4-(1-methyl-1,2,3,4-tetrahydroisoquinolin-2-yl)-6-propylpyrimidine hydrochloride]",~10000 nM,,0.3,0.4
"Cc1nc(N2CCc3ccccc3C2C)nc(Nc2ccc(F)cc2)c1C.Cl (stereo not shown) [Example 68, 5,6-dimethyl-4-(4-fluorophenylamino)-2-(1-methyl-1,2,3,4-tetrahydroisoquinolin-2-yl)pyrimidine hydrochloride]",3100 nM,0.23,0.67,1.52
